One experiment addresses 14-3-3ζ. On the set-up: method as in doi:10.1101/2024.03.15.585148. The following applies: FA assay, binary complex; read-out: KD of bivalent Tau pS2 peptide to 14-3-3ζ; cited from earlier work.
Another experiment concerns the target T1, 14-3-3ζ/Tau pS2 peptide (Homo sapiens, UniProt P63104).
T1 construct: made in house; host or cells: NiCo21 (DE3) E. coli
T1 sequence (P63104 1-245): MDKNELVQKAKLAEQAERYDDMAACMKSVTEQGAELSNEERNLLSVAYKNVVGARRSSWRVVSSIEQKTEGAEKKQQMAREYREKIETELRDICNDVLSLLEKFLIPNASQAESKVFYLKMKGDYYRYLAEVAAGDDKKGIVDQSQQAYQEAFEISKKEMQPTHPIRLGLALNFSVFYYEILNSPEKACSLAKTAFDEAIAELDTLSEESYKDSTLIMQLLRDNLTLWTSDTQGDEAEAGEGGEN
Nature of the experiment: Differential scanning fluorimetry of 14-3-3 with Tau pS2 peptide and compounds. As to conditions: 10-fold excess of Tau pS2 peptide relative to 14-3-3ζ. It is filed as binding. Here is the method:
Fig. 3 a Dose–response fluorescence anisotropy data of compound titrations to 10 nM FITC-labeled Tau pS2 peptide and 100 nM 14-3-3ζ. […] Mean of three individually performed experiments (see ESI ^† Fig. S8 for the protein titrations). e Differential scanning fluorimetry assay results. Identified melting temperatures (Tm) of 14-3-3γ alone (2.5 μM) and in the presence of Tau pS2 peptide (25 μM) and additionally with selected compounds (75 μM).
As an orthogonal method to profile the PPI stabilizing activity of selected compounds, differential scanning fluorimetry (DSF) assays were performed (Fig. 3e). […] Upon addition of compounds (1, 11, 13–14, and 20–22) to this PPI complex (30-fold compared to 14-3-3ζ), an additional increase in melting temperature between 0.9 °C and 2.1 °C was observed relative to the binary 14-3-3ζ/Tau pS2 peptide system. These observations are in agreement with the stabilization observed in the FA data and strongly testify to the molecular glue effect of our compound, by enhancing the stability of the PPI complex. […]
chromatography (HisTrap high performance cartridges, Cytiva). Typically two 5 mL columns were used for a 2 L culture in which the lysate was loaded on the column, washed with 10 CV wash buffer (50 mM Hepes, pH 8.0, 300 mM NaCl, 25 mM imidazole, 2 mM βME), and eluted with several fractions (2-4 CV) of elution buffer (50 mM Hepes, pH 8.0, 300 mM NaCl, 250 mM imidazole, 2 mM βME). Fractions containing the 14-3-3 protein were combined and dialyzed into 25 mM HEPES pH 8.0, 200 mM NaCl, 10 mM MgCl2, 2 mM βME, followed by dialysis into 25 mM HEPES, 100 mM NaCl, 10 mM MgCl2, 500 μM TCEP (adjusted to pH 8.0). Dialyzed protein was concentrated to ∼40 mg/mL, analyzed by Q -Tof LC/MS, and aliquots were flash -frozen for storage at −80 °C. For 14 -3-3σ∆c, 1 mg TEV per 100 mg purified protein was added to the dialysis to remove the purification tag. The cleaved sample was then again loaded on a 10 mL Ni-NTA column to separate the cleaved product from the expression tag and residual uncleaved protein. The flowthrough was loade d on a Superdex 75 pg 16/60 size exclusion column (GE Life Sciences) using 25 mM HEPES, 100 mM NaCl, 10 mM MgCl2, 500 μM TCEP (adjusted to pH = 8.0) as running buffer. Fractions containing the 14 -3-3 protein were pooled and concentrated to ∼60 mg/mL, analyzed Q -Tof LC/MS, and aliquots were flash -frozen for storage at −80°C. […]
The peptide screen was performed in a similar way as the 14-3-3ζ titration in the precence of compound.
14-3-3ζ was titrated in a 2-fold dilution series (starting at 400 µM 14-3-3ζ) to 100 nM of fluorescein-labeled peptides and 250 µM compound 18 (1% DMSO) in FA buffer (10 mM HEPES pH 7.4, 150 mM […]
Data shown is the average of a scientific triplicate.
Differential Scanning Fluorimetry (DSF)
DSF was performed using 40 µl samples containing 2.5 µM 14 -3-3ζ, 25 µM Tau peptide (Tau pS2, Tau pS214 or Tau pS324), […] (1% DMSO) and 5x ProteoOrange (Lumiprobe, 5000x stock in DMSO) in 10 mM HEPES, 150 mM NaCl, 50 µM TCEP (pH 7.4). The samples were heated from 35 °C to 79°C at a rate of 0.3 °C per 15 s in a C FX96 Touch Real-Time PCR Detection System (Bio -Rad). Fluorescence intensity was determined using excitation ( λem=525/20 nm) and emission ( λex=570/20 nm) filters.
Based on these melting curves, the negative derivative melting curve is obtained from which the melting temperature Tm was determined. All described melting temperatures are based on two or three independent experiments, from which the average and standard deviations were determined.
X-ray crystallography data collection and refinement
For x-ray crystallography, a C-terminally truncated 14-3-3σ protein (truncated after T231 to reduce flexibility) was used. This 14-3-3σ∆C was preincubated with Tau pS214 in complexation buffer (20 mM HEPES pH 7.5, 2 mM MgCl2 and 100 μM TCEP) in a 1:1.5 molar stoichiometry (protein:peptide) at a final protein concentration of 10.0 mg/mL. […]
For orientation: In DSF a fluorescence change marks the thermal transition of the protein.

The source of these data is publication PMC11892739, “Site-specific molecular glues for the 14-3-3/Tau pS214 protein–protein interaction via reversible covalent imine tethering” (RSC Medicinal Chemistry, 2025).

Square brackets hold non-standard residues; d marks the D form. Ends that are not written are not given here. pS = N[C@@H](COP(=O)(O)O)C(=O)O

Turning to “Tau pS2 peptide: bivalent Tau peptide phosphorylated at S214 + S324: SRTP{pS}LPTPPTREGGGSGGGSGGGVTSKCG{pS}LGNIHHK (chain 1 SRTP[pS]LPTPPTREGGGSGGGSGGGVTSKCG[pS]; numbers in words are those of the source; also: chains 1 and 2 are one continuous peptide joined through pS324) [reference compound]”, the Kd at 14-3-3ζ was 945 ± 70 nM. Further, in the experiment with 14-3-3ζ/Tau pS2 peptide, the “ΔTm, increase of 14-3-3 melting temperature compared to apo-14-3-3ζ” value was roughly 0.6 °C.
